From patent EP2830605B1, “A COMBINATION MEDICAMENT COMPRISING PHENYLEPHRINE AND PARACETAMOL” (priority 2013, dated 2014)
Where a name gives a salt, the structure may show the parent alone. Read-outs that look alike come from different tables or passages of the source.

Experiments:
[1] = cited from earlier work
[2] = in vivo

In the case of `CNC[C@H](O)c1cccc(O)c1` [10 mg phenylephrine hydrochloride, phenylephrine hydrochloride], the “Adverse Event Rate” value ([1]; dose 10mg, hydrochloride) is listed as 12.5%, the “Adverse Event Rate” value ([1]; dose 10mg, listed as Phenylephrine HCL, hydrochloride) is listed as 12.5% and the “Adverse Event Rate” value ([1]; dose 15mg) is listed as 43.8%. The “Adverse Event Rate” value ([1]; dose 25mg) was 81.3%, the “Ratio (increase of AUCtot), calculation for paracetamol 650 mg” value ([2]; human) was about 1.73 and the “dose of phenylephrine hydrochloride alone that is similar” value [2] was 16 to 20 mg.
